Measurements taken from patent US20060252807A1, “Novel ortho-terphenyl inhibitors of p38 kinase and methods of treating inflammatory disorders” (Kalypsys, Inc., priority 2005, published 2006).

Biological target: T1, active p38 alpha enzyme (Upstate Biotechnology) (Homo sapiens, UniProt Q16539)
T1 construct: purchased Upstate Biotechnology
Assay: p38α biochemical assay (ATP turnover, luminescent detection, Cambrex PKlight)
Settings: p38α kinase; Table 1 Biological Activity
How it was run: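 Measures total ATP turnover by luminescence after human p38α phosphorylates full MapkapK2 protein. Final ATP is 1.4 uM, and incubation runs 2 hours at 30C. The buffer includes 100 mM MgCl2, 4 mM CaCl2 and 1 mg/ml BSA.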

T1 sequence (Q16539 whole entry): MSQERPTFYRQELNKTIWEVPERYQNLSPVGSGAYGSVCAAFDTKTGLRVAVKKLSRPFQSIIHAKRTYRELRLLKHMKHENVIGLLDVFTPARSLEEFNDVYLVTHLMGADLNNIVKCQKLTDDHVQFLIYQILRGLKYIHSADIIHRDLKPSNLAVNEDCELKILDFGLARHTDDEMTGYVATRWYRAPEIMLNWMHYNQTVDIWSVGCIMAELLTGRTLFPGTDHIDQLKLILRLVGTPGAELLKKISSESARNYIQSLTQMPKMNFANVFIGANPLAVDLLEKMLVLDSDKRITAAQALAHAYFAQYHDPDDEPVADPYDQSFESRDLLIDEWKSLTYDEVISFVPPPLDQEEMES

| SMILES | IC50 |
| --- | --- |
| CC(C)NC(=O)c1csc(-c2c(-c3ccc(F)cc3)noc2CN(CCO)[C@H](C)c2ccccc2)n1 [Example 1570] | > 1000 nM |
| CC(C)NC(=O)c1csc(-c2c(-c3ccc(F)cc3)noc2CN(CCCO)Cc2ccccn2)n1 [Example 1571] | > 1000 nM |
| CC(C)NC(=O)c1csc(-c2c(-c3ccc(F)cc3)noc2CN(C)CC(O)c2ccc(O)cc2)n1 (stereo not shown) [Example 1572] | > 1000 nM |
| CC(C)NC(=O)c1csc(-c2c(-c3ccc(F)cc3)noc2CN2CCN(C3CCCCC3)CC2)n1 [Example 1573] | > 1000 nM |
| CC(C)NC(=O)c1csc(-c2c(-c3ccc(F)cc3)noc2CN(CCN(C)C)Cc2ccccc2)n1 [Example 1578] | > 1000 nM |
| CC(C)NC(=O)C1=CSC(c2c(-c3ccc(F)cc3)noc2CN2CCN(c3ccc(F)cc3)CC2)=NC1 [Example 1580] | > 1000 nM |
| CC(C)NC(=O)c1csc(-c2c(-c3ccc(F)cc3)noc2CN2CCN(CC3CCCCC3)CC2)n1 [Example 1581] | > 1000 nM |
| CC(C)NC(=O)c1csc(-c2c(-c3ccc(F)cc3)noc2CN(C)C[C@H](O)c2ccc(O)c(O)c2)n1 [Example 1582] | > 1000 nM |
| CCOC(=O)CC1C(=O)NCCN1Cc1onc(-c2ccc(F)cc2)c1-c1nc(C(=O)NC(C)C)cs1 (stereo not shown) [Example 1583] | > 1000 nM |
| CC(C)NC(=O)c1csc(-c2c(-c3ccc(F)cc3)noc2CN2CCC(NC(=O)OC(C)(C)C)C2)n1 (stereo not shown) [Example 1585] | > 1000 nM |
| Cc1cccc(N2CCN(Cc3onc(-c4ccc(F)cc4)c3-c3nc(C(=O)NC(C)C)cs3)CC2C)c1 (stereo not shown) [Example 1590] | > 1000 nM |
| COc1ccc(CCN(C)Cc2onc(-c3ccc(F)cc3)c2-c2nc(C(=O)NC(C)C)cs2)cc1OC [Example 1598] | > 1000 nM |
| CC(C)NC(=O)c1csc(-c2c(-c3ccc(F)cc3)noc2CN(Cc2cccnc2)Cc2cccnc2)n1 [Example 1603] | > 1000 nM |
| CC(C)NC(=O)c1csc(-c2c(-c3ccc(F)cc3)noc2CN2CCN(CCN3CCOCC3)CC2)n1 [Example 1604] | > 1000 nM |
| CC(C)NC(=O)c1csc(-c2c(-c3ccc(F)cc3)noc2CN2CCC(N(C)C(=O)OC(C)(C)C)C2)n1 (stereo not shown) [Example 1605] | > 1000 nM |
| CCN(CC)CCN(Cc1ccccc1)Cc1onc(-c2ccc(F)cc2)c1-c1nc(C(=O)NC(C)C)cs1 [Example 1607] | > 1000 nM |
| CC(C)NC(=O)c1csc(-c2c(-c3ccc(F)cc3)noc2CN(C)Cc2cccc3ccccc23)n1 [Example 1609] | > 1000 nM |
| COc1cc(CN(C)Cc2onc(-c3ccc(F)cc3)c2-c2nc(C(=O)NC(C)C)cs2)cc(OC)c1OC [Example 1611] | > 1000 nM |
| CC(C)NC(=O)c1csc(-c2c(-c3ccc(F)cc3)noc2CN(CCc2ccccc2)Cc2ccccc2)n1 [Example 1612] | > 1000 nM |
| CC(C)NC(=O)c1csc(-c2c(-c3ccc(F)cc3)noc2CN(C)C(Cc2ccccc2)c2ccccc2)n1 (stereo not shown) [Example 1614] | > 1000 nM |

| SMILES | IC50 |
| --- | --- |
| C#CCN(Cc1ccc(Cl)cc1Cl)Cc1onc(-c2ccc(F)cc2)c1-c1nc(C(=O)NC(C)C)cs1 [Example 1616] | > 1000 nM |
| CCN(Cc1onc(-c2ccc(F)cc2)c1-c1nc(C(=O)NC(C)C)cs1)C(Cc1ccccc1)c1ccco1 (stereo not shown) [Example 1617] | ≤ 1000 nM |
| CC(C)NC(=O)c1csc(-c2c(-c3ccc(F)cc3)noc2CN2CCN(C(=O)OC(C)(C)C)C[C@H]2CO)n1 [Example 1618] | > 1000 nM |
| CC(C)NC(=O)c1csc(-c2c(-c3ccc(F)cc3)noc2CN2CCN(Cc3ccc4c(c3)OCO4)CC2)n1 [Example 1620] | > 1000 nM |
| COc1cc2c(cc1OC)CN(Cc1onc(-c3ccc(F)cc3)c1-c1nc(C(=O)NC(C)C)cs1)CC2 [Example 1621] | > 1000 nM |
| CC(C)NC(=O)c1csc(-c2c(-c3ccc(F)cc3)noc2CN2CCCC(c3ccc(C(F)(F)F)cc3)C2)n1 (stereo not shown) [Example 1629] | > 1000 nM |
| CC(C)NC(=O)c1csc(-c2c(-c3ccc(F)cc3)noc2CNc2ccccc2)n1 [Example 1630] | > 1000 nM |
| Cc1cccc(NCc2onc(-c3ccc(F)cc3)c2-c2nc(C(=O)NC(C)C)cs2)c1 [Example 1631] | > 1000 nM |
| Cc1ccc(NCc2onc(-c3ccc(F)cc3)c2-c2nc(C(=O)NC(C)C)cs2)cc1 [Example 1632] | > 1000 nM |
| Cc1ccccc1NCc1onc(-c2ccc(F)cc2)c1-c1nc(C(=O)NC(C)C)cs1 [Example 1633] | > 1000 nM |
| Cc1ccc(NCc2onc(-c3ccc(F)cc3)c2-c2nc(C(=O)NC(C)C)cs2)nc1 [Example 1634] | > 1000 nM |
| Cc1cccc(NCc2onc(-c3ccc(F)cc3)c2-c2nc(C(=O)NC(C)C)cs2)n1 [Example 1635] | > 1000 nM |
| Cc1ccnc(NCc2onc(-c3ccc(F)cc3)c2-c2nc(C(=O)NC(C)C)cs2)c1 [Example 1636] | > 1000 nM |
| Cc1cccnc1NCc1onc(-c2ccc(F)cc2)c1-c1nc(C(=O)NC(C)C)cs1 [Example 1637] | > 1000 nM |
| CC(C)NC(=O)c1csc(-c2c(-c3ccc(F)cc3)noc2CNc2ccccc2F)n1 [Example 1638] | > 1000 nM |
| CC(C)NC(=O)c1csc(-c2c(-c3ccc(F)cc3)noc2CNc2ccc(F)cc2)n1 [Example 1639] | > 1000 nM |
| Cc1ccc(C)c(NCc2onc(-c3ccc(F)cc3)c2-c2nc(C(=O)NC(C)C)cs2)c1 [Example 1640] | > 1000 nM |
| Cc1ccc(NCc2onc(-c3ccc(F)cc3)c2-c2nc(C(=O)NC(C)C)cs2)cc1C [Example 1641] | > 1000 nM |
| CCc1ccccc1NCc1onc(-c2ccc(F)cc2)c1-c1nc(C(=O)NC(C)C)cs1 [Example 1642] | > 1000 nM |
| Cc1cccc(NCc2onc(-c3ccc(F)cc3)c2-c2nc(C(=O)NC(C)C)cs2)c1C [Example 1644] | > 1000 nM |

Now from value to compound:

| IC50 | SMILES |
| --- | --- |
| > 1000 nM | CC(C)NC(=O)c1csc(-c2c(-c3ccc(F)cc3)noc2CN2CCC(Cc3ccccc3)CC2)n1 [Example 1574] |
| > 1000 nM | CC(C)NC(=O)c1csc(-c2c(-c3ccc(F)cc3)noc2CN2CCN(Cc3ccccc3)CC2)n1 [Example 1575] |
| > 1000 nM | CC(C)NC(=O)c1csc(-c2c(-c3ccc(F)cc3)noc2CN2CCCN(Cc3ccccc3)CC2)n1 [Example 1576] |
| > 1000 nM | CC(C)NC(=O)c1csc(-c2c(-c3ccc(F)cc3)noc2CN2CCN(c3ccc(O)cc3)CC2)n1 [Example 1577] |
| > 1000 nM | CC(C)NC(=O)c1csc(-c2c(-c3ccc(F)cc3)noc2CN2CCN(c3ccccc3F)CC2)n1 [Example 1579] |
| > 1000 nM | CC(C)NC(=O)c1csc(-c2c(-c3ccc(F)cc3)noc2CN2CCN(C(=O)OC(C)(C)C)CC2)n1 [Example 1584] |
| > 1000 nM | CC(C)NC(=O)c1csc(-c2c(-c3ccc(F)cc3)noc2CN2CCN(c3ccccc3C#N)CC2)n1 [Example 1586] |
| > 1000 nM | CC(C)NC(=O)c1csc(-c2c(-c3ccc(F)cc3)noc2CN2CCN(c3ccc(C#N)cn3)CC2)n1 [Example 1587] |
| > 1000 nM | Cc1cccc(N2CCN(Cc3onc(-c4ccc(F)cc4)c3-c3nc(C(=O)NC(C)C)cs3)CC2)c1C [Example 1588] |
| > 1000 nM | CC(C)NC(=O)c1csc(-c2c(-c3ccc(F)cc3)noc2CN2CCN(CCc3ccccc3)CC2)n1 [Example 1591] |
| > 1000 nM | Cc1ccc(N2CCN(Cc3onc(-c4ccc(F)cc4)c3-c3nc(C(=O)NC(C)C)cs3)CC2)cc1C [Example 1592] |
| > 1000 nM | Cc1ccc(N2CCN(Cc3onc(-c4ccc(F)cc4)c3-c3nc(C(=O)NC(C)C)cs3)CC2)c(C)c1 [Example 1593] |
| > 1000 nM | Cc1ccc(C)c(N2CCN(Cc3onc(-c4ccc(F)cc4)c3-c3nc(C(=O)NC(C)C)cs3)CC2)c1 [Example 1594] |
| > 1000 nM | COc1ccc(N2CCN(Cc3onc(-c4ccc(F)cc4)c3-c3nc(C(=O)NC(C)C)cs3)CC2)cc1 [Example 1595] |
| > 1000 nM | COc1ccccc1N1CCN(Cc2onc(-c3ccc(F)cc3)c2-c2nc(C(=O)NC(C)C)cs2)CC1 [Example 1596] |
| > 1000 nM | COc1cccc(N2CCN(Cc3onc(-c4ccc(F)cc4)c3-c3nc(C(=O)NC(C)C)cs3)CC2)c1 [Example 1597] |
| > 1000 nM | CC(C)NC(=O)c1csc(-c2c(-c3ccc(F)cc3)noc2CN2CCN(c3cccc(Cl)c3)CC2)n1 [Example 1599] |
| > 1000 nM | CC(C)NC(=O)c1csc(-c2c(-c3ccc(F)cc3)noc2CN2CCN(c3ccc(Cl)cc3)CC2)n1 [Example 1600] |
| > 1000 nM | CC(C)NC(=O)c1csc(-c2c(-c3ccc(F)cc3)noc2CN2CCN(c3ccc(F)cc3F)CC2)n1 [Example 1602] |
| > 1000 nM | CC(=O)c1ccc(N2CCN(Cc3onc(-c4ccc(F)cc4)c3-c3nc(C(=O)NC(C)C)cs3)CC2)cc1 [Example 1606] |
| > 1000 nM | CC(C)NC(=O)c1csc(-c2c(-c3ccc(F)cc3)noc2CN2CCN(c3ccc([N+](=O)[O-])cc3)CC2)n1 [Example 1608] |
| > 1000 nM | Cc1ccc(Cl)cc1N1CCN(Cc2onc(-c3ccc(F)cc3)c2-c2nc(C(=O)NC(C)C)cs2)CC1 [Example 1610] |
| > 1000 nM | CC(C)NC(=O)c1csc(-c2c(-c3ccc(F)cc3)noc2CN2CCC(O)(c3ccc(Cl)cc3)CC2)n1 [Example 1615] |
| > 1000 nM | CC(C)NC(=O)c1csc(-c2c(-c3ccc(F)cc3)noc2CN2CCN(c3ccc(C(C)(C)C)cc3)CC2)n1 [Example 1619] |
| > 1000 nM | CC(C)NC(=O)c1csc(-c2c(-c3ccc(F)cc3)noc2CN2CCN(c3ccc(C(F)(F)F)cc3)CC2)n1 [Example 1622] |
| > 1000 nM | CC(C)NC(=O)c1csc(-c2c(-c3ccc(F)cc3)noc2CN2CCN(c3cccc(C(F)(F)F)c3)CC2)n1 [Example 1623] |
| > 1000 nM | CC(C)NC(=O)c1csc(-c2c(-c3ccc(F)cc3)noc2CN2CCN(c3ccc(Cl)c(Cl)c3)CC2)n1 [Example 1624] |
| > 1000 nM | CC(C)NC(=O)c1csc(-c2c(-c3ccc(F)cc3)noc2CN2CCN(c3ccc(C(F)(F)F)cn3)CC2)n1 [Example 1626] |
| > 1000 nM | CC(C)NC(=O)c1csc(-c2c(-c3ccc(F)cc3)noc2CN2CCN(c3ccccc3Cl)CC2)n1 [Example 1627] |
| > 1000 nM | COc1ccc(N2CCN(Cc3onc(-c4ccc(F)cc4)c3-c3nc(C(=O)NC(C)C)cs3)CC2)cc1OC [Example 1628] |
